# According to patent US11253497B2, “Use of derivatives of polyunsaturated fatty acids as medicaments” (Lipopharma Therapeutics, S.L., priority 2009, dated 2022):
# Legend:
# [1] = tested on: Spontaneously Hypertensive Rats (SHR); test: Blood pressure of SHR rats (cuff-tail method); type: in vivo, rat; conditions: 200 mg/kg day p.o., 30 days, before treatment 214 mmHg
# Method in brief: (§1)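 SHR rats dosed orally at 200 mg/kg day for 30 days against water vehicle. At study end, blood pressure taken non-invasively by tail cuff and apoA-I assessed as gene expression by RT-PCR.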
# [2] = tested on: apolipoprotein AI (apoA-I); test: Levels of apoA-I in SHR rats (RT-PCR); type: in vivo, rat; conditions: 200 mg/kg day p.o., 30 days, before treatment 100%
# Method in brief: as §1
# α-synuclein = test: Expression of α-synuclein in neuronal cultures (cells P19); type: cell-based; conditions: untreated cells 100%
# Alzh mice = test: Radial maze in animal model of Alzheimer's disease (Alzh mice); type: in vivo; conditions: animals with Alzheimer's disease, 20 mg/kg daily po, 3 months
# From the text: On the vertical axis it is represented the neuronal death (% of control) depending on the fatty acid used (x-axis). The presence of PUFAs induced modest increases in the survival of P19 cells in the presence of NMDA. D-PUFAs induced significant increases in cell survival values, exceeding in more than 200% in the case of 226A1. Since the number of cells in cultures treated cells is higher than in control cells, it may be affirmed that these compounds not only prevent neuronal death induced by NMDA (anti-neurodegenerative) but also are neuroregenerative agents. […] In the Y axis of the left figure it is shown the time taken to complete the exercise and in the vertical Y axis of the right figure the total number of errors made in the implementation of programmed exercise (mean standard error of the mean) (runtime). In both figures, from left to right, it is represented in the X axis the results in healthy mice (control) (first column), in mice with induced Alzheimer and treated with water as vehicle (second column) or in mice treated with the compound 226B1 (third column). Animals with Alzheimer's disease took longer and made more errors than healthy mice, being the differences statistically significant (*, P<0.05).
# To test the efficacy of the compounds of the present invention to induce neuroregeneration or inhibit neurodegeneration, an animal model of Alzheimer's disease was used. In this model mice develop neurodegeneration because they express a series of mutant proteins that lead to brain damage (Alzh mice). B6 mice were used as healthy animal controls. Both groups of animals were treated for a period of 3 months with vehicle (water) or with various D-PUFA (20 mg/kg, daily po) since they were an age of 3 months. To determine whether cognitive improvement occurred after treatment, animal behaviour was monitored in the radial maze. The animals are kept on restricted diet to have appetite. In a symmetrical 8-arm radial maze, visual marks were placed to facilitate the orientation of the animal and food (15 mg tablet) was put in four of the arms. The time each animal took to complete the exercise, and the number of errors, were measured using a camera attached to a computer system. In this sense, Alzheimer animals have values about 50% higher than healthy animals, both by the time it takes to perform the exercise and by the number of errors made (FIG. 4B). […] In this regard, the effectiveness of the compound 183B1, 205A1, 205B1, 226A1, 226 V1 was also tested, showing improvements in animals with Alzheimer's disease (times of 98, 92, 93, 86 and 89 seconds, respectively). […]
# P19 cells = test: NMDA-induced neuronal death in P19 cells; type: cell-based; conditions: for Neuronal death (P19 cells) after treatment with NMDA: NMDA alone 100% death, control without NMDA 0%, negative values = proliferation
# 3T3 cells = test: Percentage of total PUFAs in membranes of 3T3 cells treated with fatty acids (gas chromatography); type: cell-based; conditions: 100 μM, 48 hours, mean ± SEM of four measures, control 32.4 ± 2.1
# From the text: To perform these experiments, membranes were extracted and total fatty acids were obtained by hydrolysis in basic medium. Methanolic bases of these fatty acids were quantified by gas chromatography. The data shown are averages of four independent measures of PUFA's mass divided by the total fatty acids and expressed as a percentage. It is also shown is standard error of the mean.
# The control corresponds to a culture without the presence of added natural or synthetic fatty acids. Cells in their natural form present PUFAs in their membranes, but the presence in the medium of the D-PUFA molecules of the invention increases these levels of PUFAs in the cell membrane.
# [3] = tested on: heterotrimeric Gi1 protein; test: Binding of heterotrimeric Gi1 protein to model membranes (centrifugation, immunoblotting); conditions: phosphatidylcholine:phosphatidylethanolamine (6:4) 2 mM phospholipid, 0.1 μM D-PUFA; control 100 ± 5; in % (unit assumed)
# From the text: The net result is a regulation of cell signalling leading to the reversal of various pathological processes, as shown later. […] The Control is a sample of model membranes in the absence of fatty acids.
# HepG2 cells = test: Liver cancer (HepG2 cells); type: cell-based; conditions: 72 hours
# Description: These charts show the antitumor efficacy of the compounds of this invention against the growth of breast cancer cells, brain (glioma), and lung cancer. […] The other experimental conditions are identical to those described in the preceding paragraph.
# Overall, it may be seen that the series of compounds A and B are the best, so the effectiveness of these series against the development of leukaemia and liver cancer (Tables 9 and 10) was tested.
SMILES,Blood pressure [1] [mm Hg],Levels of apoA-I [2] [%],Expression of α-synuclein (α-synuclein) [%],Time to complete the radial maze exercise (Alzh mice) [s],Neuronal death (P19 cells) after treatment with NMDA (P19 cells) [%],Percentage of total PUFA (3T3 cells) [%],G protein binding [3],"IC50 (HepG2 cells; Homo sapiens, HepG2) [µM]",IC50 (HepG2 cells) [µM],Increase in cell survival in the presence of NMDA (FIG. 4A) (P19 cells; P19 cells)
CCC=CCC=CCC=CCCCCCCC(O)C(=O)[O-].[Na+] (stereo not drawn) [183B1],197,151,43,98,−58,,,,,
"CCC=CCC=CCC=CCC=CCC=CCCC(O)C(=O)O (stereo not drawn) [205A1, 2-hydroxy-5,8,11,14,17-eicosapentaenoic acid]",193,346,35,92,−50,46.7 ± 3.4,406 ± 14,401,,
CCC=CCC=CCC=CCC=CCC=CCCC(O)C(=O)[O-].[Na+] (stereo not drawn) [205B1],187,264,41,93,−52,,,,,
CCC=CCC=CCC=CCC=CCC=CCC=CCC(O)C(=O)O (stereo not drawn) [226A1],194,324,23,86,−230,48.9 ± 3.7,422 ± 26,,164,more than 200%
